Measurements published in patent US20160106711A1, “3-3-Di-Substituted-Oxindoles as Inhibitors of Translation Initiation” (President and Fellows of Harvard College, priority 2012, published 2016).

system: KLN; experiment: Cell growth assay (sulforhodamine B), KLN cells; assay type: cell-based, mouse; conditions: 5 days, SRB

Question: `CN(C)CCN1C(=O)C(c2cc(C(C)(C)C)ccc2CCCN2CCCC2)(c2cc(C(C)(C)C)ccc2OCCN2CCCC2)c2ccccc21` (centres unmarked) [HY198] was tested. Which IC50 did it give?
Answer: 0.3 ± 0.1 µM

Question: With `CCN(CCO)CCOc1ccc(C(C)(C)C)cc1C1(c2cc(C(C)(C)C)ccc2OCCN2CCOCC2)C(=O)N(CCN(C)C)c2ccccc21` (centres unmarked) [HY306] as the compound, how does the IC50 read?
Answer: 2.3 ± 1.6 µM

same assay, conditions: Mus musculus, 120 h, 5 days, SRB

Question: For `O=C1Nc2ccccc2C1(c1cc(Cl)ccc1O)c1cc(Cl)ccc1O` [HY033, 3,3-Bis(5-Chloro-2-Hydroxyphenyl)Indolin-2-One], which IC50 is on record?
Answer: 15.2 ± 1.6 µM

Question: `O=C1Nc2ccccc2C1(c1cc(C2CCCC2)ccc1O)c1cc(C2CCCC2)ccc1O` [HY051, 3,3-Bis(5-Cyclopentyl-2-Hydroxyphenyl)Indolin-2-One] was tested. Which IC50 did it give?
Answer: > 20 µM

Question: Which IC50 does the source give for `COc1ccc(C(C)C)cc1C1(c2cc(C(C)C)ccc2OC)C(=O)Nc2ccccc21` [HY061] here?
Answer: 11 ± 0.4 µM

Question: Which IC50 does the source give for `COCCOc1ccc(C(C)(C)C)cc1C1(c2cc(C(C)(C)C)ccc2O)C(=O)Nc2ccccc21` (centres unmarked) [HY081] here?
Answer: > 20 µM

system: CRL-2813; experiment: Cell growth assay (sulforhodamine B), CRL-2813 cells; assay type: cell-based, human; conditions: 5 days, SRB
How it was run: (§1)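 Cells were exposed for 5 days to 0.54-6 µM compound, then TCA-fixed and stained with sulforhodamine B, read at 490 nm. Growth was expressed as %T/C with time-zero correction. IC50 is the concentration giving 50% growth inhibition.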

Question: How did the IC50 turn out when `CN(C)CCN1C(=O)C(c2cc(C(C)(C)C)ccc2CCCN2CCCC2)(c2cc(C(C)(C)C)ccc2OCCN2CCCC2)c2ccccc21` (centres unmarked) [HY198] was run?
Answer: 0.8 ± 0.1 µM

Question: How did the IC50 turn out when `CCN(CCO)CCOc1ccc(C(C)(C)C)cc1C1(c2cc(C(C)(C)C)ccc2OCCN2CCOCC2)C(=O)N(CCN(C)C)c2ccccc21` (centres unmarked) [HY306] was run?
Answer: 2.7 ± 0.8 µM

same assay, conditions: Homo sapiens, CRL2813, 120 h, 5 days, SRB

Question: How did the IC50 turn out when `O=C1Nc2ccccc2C1(c1cc(Cl)ccc1O)c1cc(Cl)ccc1O` [HY033, 3,3-Bis(5-Chloro-2-Hydroxyphenyl)Indolin-2-One] was run?
Answer: 4.2 ± 0.2 µM

Question: With `O=C1Nc2ccccc2C1(c1cc(C2CCCC2)ccc1O)c1cc(C2CCCC2)ccc1O` [HY051, 3,3-Bis(5-Cyclopentyl-2-Hydroxyphenyl)Indolin-2-One] as the compound, how does the IC50 read?
Answer: 3.1 ± 0.2 µM

Question: Which IC50 does the source give for `COc1ccc(C(C)C)cc1C1(c2cc(C(C)C)ccc2OC)C(=O)Nc2ccccc21` [HY061] here?
Answer: 2.8 ± 0.2 µM

Question: Which IC50 does the source give for `COCCOc1ccc(C(C)(C)C)cc1C1(c2cc(C(C)(C)C)ccc2O)C(=O)Nc2ccccc21` (centres unmarked) [HY081] here?
Answer: 0.9 ± 0.1 µM

system: CRL-2351; experiment: Cell growth assay (sulforhodamine B), CRL-2351 cells; assay type: cell-based, human; conditions: 5 days, SRB
How it was run: as §1

Question: For `CN(C)CCN1C(=O)C(c2cc(C(C)(C)C)ccc2CCCN2CCCC2)(c2cc(C(C)(C)C)ccc2OCCN2CCCC2)c2ccccc21` (centres unmarked) [HY198], which IC50 is on record?
Answer: 0.2 ± 0.05 µM

Question: How did the IC50 turn out when `CCN(CCO)CCOc1ccc(C(C)(C)C)cc1C1(c2cc(C(C)(C)C)ccc2OCCN2CCOCC2)C(=O)N(CCN(C)C)c2ccccc21` (centres unmarked) [HY306] was run?
Answer: 2.3 ± 0.6 µM

same assay, conditions: Homo sapiens, 120 h, 5 days, SRB

Question: Which IC50 does the source give for `O=C1Nc2ccccc2C1(c1cc(Cl)ccc1O)c1cc(Cl)ccc1O` [HY033, 3,3-Bis(5-Chloro-2-Hydroxyphenyl)Indolin-2-One] here?
Answer: 6.8 ± 0.8 µM

Question: How did the IC50 turn out when `O=C1Nc2ccccc2C1(c1cc(C2CCCC2)ccc1O)c1cc(C2CCCC2)ccc1O` [HY051, 3,3-Bis(5-Cyclopentyl-2-Hydroxyphenyl)Indolin-2-One] was run?
Answer: 5.3 ± 2.4 µM

Question: With `COc1ccc(C(C)C)cc1C1(c2cc(C(C)C)ccc2OC)C(=O)Nc2ccccc21` [HY061] as the compound, how does the IC50 read?
Answer: 3 µM

Question: `COCCOc1ccc(C(C)(C)C)cc1C1(c2cc(C(C)(C)C)ccc2O)C(=O)Nc2ccccc21` (centres unmarked) [HY081] was tested. Which IC50 did it give?
Answer: 3.9 ± 2 µM

system: CHOP mRNA; experiment: Real time PCR of CHOP mRNA expression, KLN cells; assay type: cell-based, mouse; conditions: Mus musculus, at 20 uM
Method: (§2) In order to validate the compounds described herein as modifiers of the abundance of the eIF2•GTP•Met-tRNAi ternary complex, the effects of the compounds on endogenous cellular markers of the ternary complex were determined. For example, reducing amount of the ternary complex increases translation of ATF-4, which results in elevated expression of CHOP mRNA and protein. Therefore, expression of endogenous CHOP mRNA and CHOP protein in KLN-tTA/pBISA-DL^(ATF-4) cells were utilized as secondary assays to validate the compounds as modifiers of the eIF2•GTP•Met-tRNAi ternary complex.
(§3) Total RNA was extracted with TaqMan Gene Expression Cells-to-Ct™ Kit (Applied Biosystems, Branchburg, N.J.) and DNAse I treated according to manufacturer's recommendations. 1-Step Real-time PCR was performed on a Bio-Rad iCycler IQ5 system by using B-R 1-Step SYBR Green qRT-PCR Kit (Quanta BioSciences, Gaithersburg, Md.) according to manufacturer's specifications. The thermal cycler conditions were as follows: 10 minutes at 50° C., hold for 5 minutes at 95° C., followed by 2-step PCR for 45 cycles of 95° C. for 15 seconds followed by 60° C. for 30 seconds. All PCRs were performed in triplicate in at least two independent PCR runs. Mean values of these repeated measurements were used for calculation. To calibrate the results, all the transcript quantities were normalized to 18S rRNA (18S ribosomal RNA-like mRNA in mouse). The following primers were used in real-time PCR reactions.
The effects of these compounds on the ternary complex assay and the expression of CHOP mRNA was assayed in adherent mouse (KLN) and human solid tumors cells (CRL-2351 and CRL-2813).

Question: Which fold induction at 20 µM does the source give for `O=C1Nc2ccccc2C1(c1cc(C2CCCC2)ccc1O)c1cc(C2CCCC2)ccc1O` [HY051, 3,3-Bis(5-Cyclopentyl-2-Hydroxyphenyl)Indolin-2-One] here?
Answer: 13.8

same assay, conditions: Mus musculus, at 40 (uM)

Question: Which fold induction at 40 µM does the source give for `COc1ccc(C(C)C)cc1C1(c2cc(C(C)C)ccc2OC)C(=O)Nc2ccccc21` [HY061] here?
Answer: 4.23

Question: For `COCCOc1ccc(C(C)(C)C)cc1C1(c2cc(C(C)(C)C)ccc2O)C(=O)Nc2ccccc21` (centres unmarked) [HY081], which fold induction at 40 µM is on record?
Answer: 1.78

same assay, conditions: Mus musculus, at 80 (uM)

Question: How did the fold induction at 80 µM turn out when `COc1ccc(C(C)C)cc1C1(c2cc(C(C)C)ccc2OC)C(=O)Nc2ccccc21` [HY061] was run?
Answer: 12.3

same assay, conditions: at 20 uM

Question: For `CN(C)CCN1C(=O)C(c2cc(C(C)(C)C)ccc2CCCN2CCCC2)(c2cc(C(C)(C)C)ccc2OCCN2CCCC2)c2ccccc21` (centres unmarked) [HY198], which “CHOP PCR (μM) KLN” value is on record?
Answer: 3.76 at

Question: With `CCN(CCO)CCOc1ccc(C(C)(C)C)cc1C1(c2cc(C(C)(C)C)ccc2OCCN2CCOCC2)C(=O)N(CCN(C)C)c2ccccc21` (centres unmarked) [HY306] as the compound, how does the “CHOP PCR (μM) KLN” value read?
Answer: 8.11 at

system: CHOP mRNA; experiment: Real time PCR of CHOP mRNA expression, CRL-2351 cells; assay type: cell-based, human; conditions: CRL-2351, 20 uM
Method: as §2
as §3, with “Mean values of these repeated measurements were used for calculation.” left out, “The following primers were used in real-time PCR reactions.” left out

Question: `O=C1Nc2ccccc2C1(c1cc(Cl)ccc1O)c1cc(Cl)ccc1O` [HY033, 3,3-Bis(5-Chloro-2-Hydroxyphenyl)Indolin-2-One] was tested. Which “CHOP PCR (μM) 2351” value did it give?
Answer: 7.8/20 uM

same assay, conditions: CRL-2351, 40 uM

Question: Which “CHOP PCR (μM) 2351” value does the source give for `O=C1Nc2ccccc2C1(c1cc(Cl)ccc1O)c1cc(Cl)ccc1O` [HY033, 3,3-Bis(5-Chloro-2-Hydroxyphenyl)Indolin-2-One] here?
Answer: 18.5/40 uM

system: eIF2•GTP•Met-tRNAi ternary complex; experiment: Ternary complex assay (ATF-4 assay), dual luciferase firefly/renilla ratio; assay type: cell-based, mouse; conditions: 2.5 uM
How it was run: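 Stable KLN cancer cells expressing tTA carry a bidirectional reporter in which firefly luciferase sits behind the ATF-4 5′UTR and renilla luciferase behind a plasmid-derived 5′UTR only. Lysates were read by Dual-Glo luciferase assay, and the output is the firefly/renilla signal ratio.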

Question: For `CN(C)CCN1C(=O)C(c2cc(C(C)(C)C)ccc2CCCN2CCCC2)(c2cc(C(C)(C)C)ccc2OCCN2CCCC2)c2ccccc21` (centres unmarked) [HY198], which “ATF-4 Xmax” value is on record?
Answer: 11.82 ± 0.11/2.5 uM

same assay, conditions: Mus musculus, 20 uM, read-out: ATF-4 Xmax

Question: How did the maximal fold induction at 20 µM turn out when `O=C1Nc2ccccc2C1(c1cc(C2CCCC2)ccc1O)c1cc(C2CCCC2)ccc1O` [HY051, 3,3-Bis(5-Cyclopentyl-2-Hydroxyphenyl)Indolin-2-One] was run?
Answer: 5.48 ± 0.3

same assay, conditions: Mus musculus, 80 uM, read-out: ATF-4 Xmax

Question: Which maximal fold induction at 80 µM does the source give for `COc1ccc(C(C)C)cc1C1(c2cc(C(C)C)ccc2OC)C(=O)Nc2ccccc21` [HY061] here?
Answer: 2.9 ± 1.21

same assay, conditions: Mus musculus, at 40 uM, read-out: ATF-4 Xmax @ 40 μM

Question: Which maximal fold induction at 40 µM does the source give for `O=C1Nc2ccccc2C1(c1cc(Cl)ccc1O)c1cc(Cl)ccc1O` [HY033, 3,3-Bis(5-Chloro-2-Hydroxyphenyl)Indolin-2-One] here?
Answer: 6.14 ± 0.63

Question: With `COCCOc1ccc(C(C)(C)C)cc1C1(c2cc(C(C)(C)C)ccc2O)C(=O)Nc2ccccc21` (centres unmarked) [HY081] as the compound, how does the maximal fold induction at 40 µM read?
Answer: 1.21 ± 0.16

same assay, conditions: at 40 uM

Question: For `CCN(CCO)CCOc1ccc(C(C)(C)C)cc1C1(c2cc(C(C)(C)C)ccc2OCCN2CCOCC2)C(=O)N(CCN(C)C)c2ccccc21` (centres unmarked) [HY306], which “ATF-4 Xmax @ 40 μM” value is on record?
Answer: 19.2 ± 11.2 at 40 uM
